Data published in patent US6410706B1, “Nucleic acid encoding chitin-binding receptor kinase” (Korea Research Institute of Bioscience and Biotechnology, priority 1999, dated 2002).

Target: recombinant chitinase domain of receptor kinase CHRK1 (amino acid residues 1 to 359 of SEQ ID NO: 1) (Nicotiana tabacum, UniProt Q9SWX8)
Assay: Fluorescence polarization chitin-binding assay with Scatchard plot analysis
Conditions: excitation 318 nm, emission 373 nm; for binding to the chitinase domain, seen as change in polarization value: fluorescence polarization, thioredoxin control did not increase
Description: The chitinase activity and the chitin-binding activity of receptor kinase CHRK1 in this invention are analysed using its recombinant chitinase domain. Consequently, the recombinant chitinase domain has a chitin-binding activity and lacks a chitinase activity.
In order to examine the chitinase activity of receptor kinase […], the recombinant chitinase domain corresponding to amino acid residues 1 to 359 of SEQ. ID NO: 1 was purified from E. coli, and its chitinase activity was estimated by fluorescence polarization assay.
As a result of Scratchard plot analysis, dissociation constant (kd) value of MU-chitotriose was estimated to be 800 nM. In case of using MU-chitotriose or MU-chitotetrose probe without fluorophor as a competitor, binding activity between the chitinase domain and MU-chitotriose or MU-chitotetrose conjugated with fluorophor was inhibited by the competitor. Consequently, the initial polarization value was decreased.

Sequence of recombinant chitinase domain of receptor kinase CHRK1 (amino acid residues 1 to 359 of SEQ ID NO: 1) (Q9SWX8 entry or part of it): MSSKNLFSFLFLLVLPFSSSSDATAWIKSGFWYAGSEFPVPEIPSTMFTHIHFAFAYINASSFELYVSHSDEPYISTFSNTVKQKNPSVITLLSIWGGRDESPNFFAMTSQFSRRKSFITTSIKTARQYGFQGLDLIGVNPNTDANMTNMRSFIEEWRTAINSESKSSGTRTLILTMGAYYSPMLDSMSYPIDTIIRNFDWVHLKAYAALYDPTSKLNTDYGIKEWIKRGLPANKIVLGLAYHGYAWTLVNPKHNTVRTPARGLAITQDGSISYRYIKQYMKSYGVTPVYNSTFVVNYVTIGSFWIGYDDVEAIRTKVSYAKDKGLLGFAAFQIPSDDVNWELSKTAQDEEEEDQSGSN

Row | SMILES | binding to the chitinase domain, seen as change in polarization value | Kd (Scratchard plot analysis of fluorescence polarization, chitinase domain purified from E. coli, read-out: dissociation constant (kd)) [nM]
1 | CC(=O)NC1C(OC2C(CO)OC(OC3C(CO)OC(OC4C(CO)OC(Oc5ccc6c(C)cc(=O)oc6c5)C(NC(C)=O)C4O)C(NC(C)=O)C3O)C(NC(C)=O)C2O)OC(CO)C(O)C1O (stereo not drawn) [Mu-chitotetrose] | increased polarization value | 
2 | CC(=O)N[C@H]1[C@H](Oc2ccc3c(C)cc(=O)oc3c2)O[C@H](CO)[C@@H](O[C@@H]2O[C@H](CO)[C@@H](O[C@@H]3O[C@H](CO)[C@@H](O)[C@H](O)[C@H]3NC(C)=O)[C@H](O)[C@H]2NC(C)=O)[C@@H]1O [MU-chitotriose] | increased polarization value | 800
